Patent US20260174905A1, “COMPOSITIONS AND METHODS FOR IMPROVED ADENOVIRAL-BASED GENE THERAPY UTILIZING CORT[…]” (Pacira Therapeutics, Inc., priority 2023, published 2026)

What was measured:
rat knee joint = experiment: Synovial/periarticular inflammation in rat knee joint after intraarticular HDAd-LacZ with or without TAC; type: in vivo; details: coadministration of 0.06 mg TAC with HDAd-LacZ
Description: Rats obtained from Envigo (Indianapolis, IN) were housed in polycarbonate cages, 4 animals per cage. After 4 days acclimatization, on study day 0, animals (mean weight of 310 g) were randomized into groups by bodyweight, 6 animals per group. Following randomization, test article administration was performed by intraarticular injection of 50 μL/joint. In respective groups, animals were treated with: 5E7 VP HDAd-LacZ, 5E8 VP HDAd-LacZ, 5E9 VP HDAd-LacZ, 5E10 VP HDAd-LacZ, 5E7 VP HDAd-LacZ+0.06 mg TAC, 5E8 VP HDAd-LacZ+0.06 mg TAC, 5E9 VP HDAd-LacZ+0.06 mg TAC, 5E10 VP HDAd-LacZ+0.06 mg TAC or vehicle.
For the groups co-treated with HDAd-LacZ and TAC, TAC suspension was prepared by diluting the commercially available injectable suspension (Kenalog 10, Bristol-Myers Squibb) with isotonic saline solution and added to the HDAd-LacZ preparation (i.e. the injection volume of 50 μL of the test article+TAC mixture contained 0.06 mg TAC).
At necropsy on study day 4, the rats were anesthetized with isoflurane. […]
The tissues were evaluated by the investigator microscopically for inflammation and X-gal staining in a blinded manner. The approximate lengths of the medial and lateral synovia were measured using an ocular micrometer. The lengths of the X-gal-stained areas were measured, and the length of staining relative to the total length of the area (%) was determined. […]

HEK293 cells = experiment: HDAd-LacZ infection with corticosteroid, X-Gal staining for LacZ expression in HEK293 cells; type: cell-based; details: dose range of corticosteroid with HDAd-LacZ
Description: Methods: 116 cells or HEK293 cells were seeded in 12-well or 96-well plates in standard cell culture media. One day later, cells were infected with the gene therapy vector HDAd-LacZ (a helper-dependent adenoviral vector expressing beta-galactosidase (LacZ) under the control of the constitutive CMV promoter) at different multiplicities of infections (MOIs; virus particles per cells seeded) mixed with different amounts/concentrations of the corticosteroids triamcinolone acetonide (TAC; TriamHEXAL®, Hexal AG, Holzkirchen, Germany), betamethasone (Celestan®, MSD, Kenilworth, NJ, USA), or dexamethasone (Lipotalon®, Recordati, Milan, Italy). HDAd-LacZ was produced by GeneQuine Biotherapeutics GmbH (HDAd-LacZ originally sourced from Baylor College of Medicine, USA). In an experiment evaluating different timing or administration of the corticosteroid relative to administration of the HDAs-LacZ, cells were either pre-treated with TAC 3 hours prior to infection with HDAd-LacZ (PRE), TAC treatment and HDAd-LacZ infection was done simultaneously as described above (SIMULTANEOUS), or cells were treated with TAC 3 hours post infection with HDAd-LacZ (POST). One day later, supernatants were aspirated and cell monolayers were stained for LacZ expression using the X-Gal staining kit according to manufacturer's manual (OZ Bioscience, Marseille, France). Macroscopic and microscopic (at 4× or 10× magnification) photos of the stained monolayers were taken (blue staining indicates LacZ expression). A preliminary measure of intensity of the staining was semi-quantitatively measured using ImageJ software by converting the images to 8-bit grayscale and drawing regions of interest around the areas to be measured. The mean intensity values (on a scale of 0-255; 0 being black and 255 being white) were subtracted from 255, divided by 255 and multiplied by 100, i.e. reported values were on a scale of 0-100 (0 being white and 100 being black) where higher values indicate more intense (darker) staining.

Structure (SMILES) | HDAd-LacZ mediated inflammation (synovial/periarticular) (rat knee joint) | concentration at which enhancement of HDAd-mediated LacZ expression started (HEK293 cells)
CC1(C)O[C@@H]2C[C@H]3[C@@H]4CCC5=CC(=O)C=C[C@]5(C)[C@@]4(F)[C@@H](O)C[C@]3(C)[C@]2(C(=O)CO)O1 [TAC, triamcinolone acetonide] | reduced | 0.18 ng/mL
C[C@H]1C[C@H]2[C@@H]3CCC4=CC(=O)C=C[C@]4(C)[C@@]3(F)[C@@H](O)C[C@]2(C)[C@@]1(O)C(=O)CO [betamethasone] | – | 3.9 ng/mL
C[C@@H]1C[C@H]2[C@@H]3CCC4=CC(=O)C=C[C@]4(C)[C@@]3(F)[C@@H](O)C[C@]2(C)[C@@]1(O)C(=O)CO [dexamethasone] | – | 3.9 ng/mL
